The subject of this assay is T1, EbF7GAT.
T1 construct: gene F7GAT; tag removal not mentioned
Nature of the assay: HPLC of glucuronide product, initial-rate kinetics. It counts as biochemical, Erigeron breviscapus. The following applies: UDP-glucuronic acid as donor (1 mM in standard assay), 50 mM Tris-HCl pH 7.5, 37 °C.

`O=c1cc(-c2ccc(O)cc2)oc2cc(O)cc(O)c12` [apigenin]: the Km (in general, the concentration of substrate that gives half-maximal velocity) (10 min, 0.1-20 µM apigenin) stood at 9.24 µM. In the case of `O=c1cc(-c2ccc(O)cc2)oc2cc(O)c(O)c(O)c12` [scutellarein], the Michaelis constant (Km) (5-300 µM scutellarein) was 70.2 µM.
